In patent US5149365A, “Diorganotin compounds, and agents which have a bactericidal and fungicidal action and contain these compounds” (Schering Aktiengesellschaft, priority 1988, dated 1992):
Where a name gives a salt, the structure may show the parent alone.

Columns and labels:
[1] = Weight loss (release) on storage, 6 days at 65° C.; format: physicochemical; conditions: for Weight loss: 6 days 65° C.
Protocol: As shown by the comparison above, the amount released into the environment during a storage period of 6 days at 65° C. of, for example, TBT-HDO, is nearly six times higher than in the case of DBT-HDO according to the invention.

Orfes = test: EC50 in Orfes (DIN 38412, Part 15); format: in vivo
Source text: *Determination in accordance with DIN 38412, Part 15

Daphnia = test: EC50 in Daphnia (DIN 38412, Part 12); format: in vivo
Source text: **Determination in accordance with DIN 38412, Part 12.

Coniophora puteana = test: Wood block test against Coniophora puteana after leaching treatment (DIN 52 176, DIN EN 84); conditions: lower: highest amount with attack (weight loss>3%); higher: lowest amount without attack; 16 weeks, 22° C.
Source text: To compare the fungicidal action against Basidiomycetes, small blocks made of pine sapwood (5 cm×2.5 cm×1.5 cm, direction of fiber: 5 cm) were soaked with solutions of graduated concentrations of the active substance DBT-HDO (cf. Example 1) in acetone, based on DIN 52 176.
For comparison reasons, the starting materials di-n-butyltin dichloride and the K salt of N-cyclohexyl-N'-hydroxydiazenium oxide were included in the investigations.
The soaked blocks were kept for 4 weeks in an environmentally-controlled chamber at an air temperature of 20° C. and a relative atmospheric humidity of 65%. They were then subjected to a leaching procedure in accordance with DIN EN 84. […] The effect of the fungi on the individual blocks was determined by calculating the weight losses (based on the dry weights). The limits which were determined in this way and which are expressed by two figures, the lower of which being the highest amount of protective agent (in kg/m^3 of wood) at which an attack still took place (weight loss>3%), and the higher denoting the lowest amount from which an attack no longer took place, are listed in Table 3.

Bacillus subtilis = test: Agar diffusion test, Bacillus subtilis; format: cell-based; conditions: 0: no inhibition action
Protocol: (§1) DST agar was inoculated with 1 drop of a Muller-Hinton broth of the test organisms, diluted 1 : 10. After a prediffusion period of 2 hours at 22° C., the paper filters which had been soaked with solutions of active substance of various concentrations were placed on the agar. The inhibition zones (distance of the cloudy area from the edge of the paper filter in mm) were determined after an incubation time of 24 hours.

Staphilococcus aureaus = test: Agar diffusion test, Staphilococcus aureaus; format: cell-based; conditions: 0: no inhibition action
Protocol: as §1

Proteus vulgaris = test: Agar diffusion test, Proteus vulgaris; format: cell-based; conditions: 0: no inhibition action
Protocol: as §1

Escherichia coli = test: Agar diffusion test, Escherichia coli; format: cell-based; conditions: 0: no inhibition action
Protocol: as §1

Cladosporum herbarum = test: Filter disk test, Cladosporum herbarum; format: cell-based; conditions: 3 weeks, +30° C.
Protocol: (§2) The inhibition action against fungi, of the products according to the invention, was tested using the "filter disk test" (cf. Table 2). For this purpose, paper filter disks (.phi. 5.5 cm) were soaked in ethanolic solutions containing various amounts of active substance. After the filters had dried under room conditions, they were placed on Petri dishes containing plate-count agar which had been inoculated with a spore suspension. The nutrient medium used was biomalt agar 8° Bg, and the dishes were incubated for 3 weeks at +30° C. Thereafter, the sizes of the inhibition zones (distance of the fungal growth from the edge of the filter, in mm) around the samples were determined.

Lentinus lepideus = test: Filter disk test, Lentinus lepideus; format: cell-based; conditions: 3 weeks, +30° C.
Protocol: as §2

Poria monticola = test: Filter disk test, Poria monticola; format: cell-based; conditions: 3 weeks, +30° C.
Protocol: as §2

Paecilomyces varioti = test: Filter disk test, Paecilomyces varioti; format: cell-based; conditions: 3 weeks, +30° C.
Protocol: as §2

rats = test: LD50 oral (rats); format: in vivo
bacteria and fungi = conditions: prior art; cited from earlier work
[2] = 0.1% active substance in soaking solution
[3] = 0.3% active substance in soaking solution
[4] = 0.5% active substance in soaking solution

CCC[CH2][Sn]([CH2]CCC)([O]N(N=O)C1CCCCC1)[O]N(N=O)C1CCCCC1 [DBT-HDO, bis(N-cyclohexyldiazeniumdioxy)di-n-butyltin]
Weight loss [1]: 2.3%
EC50 in Orfes (Orfes): 0.18 mg/l of water
EC50 in Daphnia (Daphnia): 4.9 mg/l of water
Limits against Coniophora puteana after leaching treatment (Coniophora puteana): 0.51-0.88 kg of product per m^3 of wood
inhibition zone (Bacillus subtilis; [2]): 6 mm
inhibition zone (Bacillus subtilis; [3]): 11 mm
inhibition zone (Bacillus subtilis; [4]): 15 mm
inhibition zone (Staphilococcus aureaus; [2]): 8 mm
inhibition zone (Staphilococcus aureaus; [3]): 10 mm
inhibition zone (Staphilococcus aureaus; [4]): 10 mm
inhibition zone (Proteus vulgaris; [2]): 12 mm
inhibition zone (Proteus vulgaris; [3]): 13 mm
inhibition zone (Proteus vulgaris; [4]): 12 mm
inhibition zone (Escherichia coli; [2]): 0 mm
inhibition zone (Escherichia coli; [3]): 2 mm
inhibition zone (Escherichia coli; [4]): 3 mm
inhibition zone (IZ) (Cladosporum herbarum; 0.5% content of the solution): 3-5 mm
inhibition zone (IZ) (Cladosporum herbarum; 1% content of the solution): 5-6 mm
inhibition zone (IZ) (Cladosporum herbarum; 2% content of the solution): 8-10 mm
inhibition zone (IZ) (Lentinus lepideus; 0.5% content of the solution): > 15 mm
inhibition zone (IZ) (Lentinus lepideus; 1% content of the solution): > 15 mm
inhibition zone (IZ) (Lentinus lepideus; 2% content of the solution): > 15 mm
inhibition zone (IZ) (Poria monticola; 0.5% content of the solution): 6-8 mm
inhibition zone (IZ) (Poria monticola; 1% content of the solution): 12-12 mm
inhibition zone (IZ) (Poria monticola; 2% content of the solution): 12-15 mm
inhibition zone (IZ) (Paecilomyces varioti; 0.5% content of the solution): 6-8 mm
inhibition zone (IZ) (Paecilomyces varioti; 1% content of the solution): 8-10 mm
inhibition zone (IZ) (Paecilomyces varioti; 2% content of the solution): 10-12 mm

CCCCCCC[CH2][Sn]([CH2]CCCCCCC)([O]N(N=O)C1CCCCC1)[O]N(N=O)C1CCCCC1 [DOT-HDO, bis(N-cyclohexyldiazeniumdioxy)di-n-octyltin]
inhibition zone (IZ) (Cladosporum herbarum; 0.5% content of the solution): 10-12 mm
inhibition zone (IZ) (Cladosporum herbarum; 1% content of the solution): 12-15 mm
inhibition zone (IZ) (Cladosporum herbarum; 2% content of the solution): > 15 mm
inhibition zone (IZ) (Lentinus lepideus; 0.5% content of the solution): > 15 mm
inhibition zone (IZ) (Lentinus lepideus; 1% content of the solution): > 15 mm
inhibition zone (IZ) (Lentinus lepideus; 2% content of the solution): > 15 mm
inhibition zone (IZ) (Poria monticola; 0.5% content of the solution): 5-6 mm
inhibition zone (IZ) (Poria monticola; 1% content of the solution): 8-10 mm
inhibition zone (IZ) (Poria monticola; 2% content of the solution): 8-10 mm
inhibition zone (IZ) (Paecilomyces varioti; 0.5% content of the solution): 5-6 mm
inhibition zone (IZ) (Paecilomyces varioti; 1% content of the solution): 8-10 mm
inhibition zone (IZ) (Paecilomyces varioti; 2% content of the solution): 10-12 mm

CCCC[CH2][Sn]([CH2]CCCC)([O]N(N=O)C1CCCCC1)[O]N(N=O)C1CCCCC1 [DPT-HDO, bis(N-cyclohexyldiazeniumdioxy)di-n-pentyltin]
inhibition zone (IZ) (Cladosporum herbarum; 0.5% content of the solution): 2-3 mm
inhibition zone (IZ) (Cladosporum herbarum; 1% content of the solution): 5-7 mm
inhibition zone (IZ) (Cladosporum herbarum; 2% content of the solution): 6-8 mm
inhibition zone (IZ) (Lentinus lepideus; 0.5% content of the solution): > 15 mm
inhibition zone (IZ) (Lentinus lepideus; 1% content of the solution): > 15 mm
inhibition zone (IZ) (Lentinus lepideus; 2% content of the solution): > 15 mm
inhibition zone (IZ) (Poria monticola; 0.5% content of the solution): 6-8 mm
inhibition zone (IZ) (Poria monticola; 1% content of the solution): 8-10 mm
inhibition zone (IZ) (Poria monticola; 2% content of the solution): 10-12 mm
inhibition zone (IZ) (Paecilomyces varioti; 0.5% content of the solution): 6-8 mm
inhibition zone (IZ) (Paecilomyces varioti; 1% content of the solution): 8-10 mm
inhibition zone (IZ) (Paecilomyces varioti; 2% content of the solution): 10-12 mm

CCC[CH2][Sn]([Cl])([Cl])[CH2]CCC [Di-n-butyltin dichloride]
Growth (Lentinus lepideus; 1% content of the solution): + +

[O-][N+](=NO)C1CCCCC1 [K-HDO, potassium salt of N-cyclohexyl-N'-hydroxydiazenium oxide]
Limits against Coniophora puteana after leaching treatment (Coniophora puteana): 1.8-3.4 kg of product per m^3 of wood
zone of inhibition at 0.1 % strength (Bacillus subtilis; Bacillus subtilis, 24 h, 0.1% active substance in soaking solution): 4 mm
zone of inhibition at 0.3 % strength (Bacillus subtilis; Bacillus subtilis, 24 h, 0.3% active substance in soaking solution): 4 mm
zone of inhibition at 0.5 % strength (Bacillus subtilis; Bacillus subtilis, 24 h, 0.5% active substance in soaking solution): 9 mm
zone of inhibition at 0.1 % strength (Staphilococcus aureaus; 24 h, 0.1% active substance in soaking solution): 8 mm
zone of inhibition at 0.3 % strength (Staphilococcus aureaus; 24 h, 0.3% active substance in soaking solution): 14 mm
zone of inhibition at 0.5 % strength (Staphilococcus aureaus; 24 h, 0.5% active substance in soaking solution): 19 mm
zone of inhibition at 0.1 % strength (Proteus vulgaris; Proteus vulgaris, 24 h, 0.1% active substance in soaking solution): 0 mm
zone of inhibition at 0.3 % strength (Proteus vulgaris; Proteus vulgaris, 24 h, 0.3% active substance in soaking solution): 0 mm
zone of inhibition at 0.5 % strength (Proteus vulgaris; Proteus vulgaris, 24 h, 0.5% active substance in soaking solution): 0 mm
zone of inhibition at 0.1 % strength (Escherichia coli; Escherichia coli, 24 h, 0.1% active substance in soaking solution): 0 mm
zone of inhibition at 0.3 % strength (Escherichia coli; Escherichia coli, 24 h, 0.3% active substance in soaking solution): 0 mm
zone of inhibition at 0.5 % strength (Escherichia coli; Escherichia coli, 24 h, 0.5% active substance in soaking solution): 0 mm
zone of inhibition at 0.5 % (Cladosporum herbarum; 504 h, 0.5% content of the solution, read-out: inhibition zone (IZ)): 4 to 6 mm
zone of inhibition at 1 % (Cladosporum herbarum; 504 h, 1% content of the solution, read-out: inhibition zone (IZ)): 8 to 10 mm
zone of inhibition at 2 % (Cladosporum herbarum; 504 h, 2% content of the solution, read-out: inhibition zone (IZ)): 10 to 12 mm
zone of inhibition at 0.5 % (Lentinus lepideus; Neolentinus lepideus, 504 h, 0.5% content of the solution, read-out: inhibition zone (IZ)): 4 to 6 mm
zone of inhibition at 1 % (Lentinus lepideus; Neolentinus lepideus, 504 h, 1% content of the solution, read-out: inhibition zone (IZ)): 10 to 12 mm
zone of inhibition at 2 % (Lentinus lepideus; Neolentinus lepideus, 504 h, 2% content of the solution, read-out: inhibition zone (IZ)): > 15 mm
zone of inhibition at 0.5 % (Poria monticola; Poria monticola, 504 h, 0.5% content of the solution, read-out: inhibition zone (IZ)): 2 to 3 mm
zone of inhibition at 1 % (Poria monticola; Poria monticola, 504 h, 1% content of the solution, read-out: inhibition zone (IZ)): 6 to 8 mm
zone of inhibition at 2 % (Poria monticola; Poria monticola, 504 h, 2% content of the solution, read-out: inhibition zone (IZ)): 10 to 12 mm
zone of inhibition at 0.5 % (Paecilomyces varioti; Paecilomyces, 504 h, 0.5% content of the solution, read-out: inhibition zone (IZ)): 5 to 7 mm
zone of inhibition at 1 % (Paecilomyces varioti; Paecilomyces, 504 h, 1% content of the solution, read-out: inhibition zone (IZ)): 6 to 8 mm
zone of inhibition at 2 % (Paecilomyces varioti; Paecilomyces, 504 h, 2% content of the solution, read-out: inhibition zone (IZ)): 8 to 10 mm

CCC[CH2][Sn]([CH2]CCC)([CH2]CCC)[O]N(N=O)C1CCCCC1 [TBT-HDO]
Weight loss [1]: 12.8%
amount released into the environment, times higher than DBT-HDO ([1]; storage 6 days at 65° C., TBT-HDO vs DBT-HDO): six
LD50 oral (rats) (rats): 63 mg/kg of body wt.
EC50 in Orfes (Orfes): 0.035 mg/l of water
EC50 in Daphnia (Daphnia): 0.020 mg/l of water
inhibition zone (Bacillus subtilis; [2]): 17 mm
inhibition zone (Bacillus subtilis; [3]): 22 mm
inhibition zone (Bacillus subtilis; [4]): 18 mm
inhibition zone (Staphilococcus aureaus; [2]): 28 mm
inhibition zone (Staphilococcus aureaus; [3]): 32 mm
inhibition zone (Staphilococcus aureaus; [4]): 24 mm
inhibition zone (Proteus vulgaris; [2]): 6 mm
inhibition zone (Proteus vulgaris; [3]): 7 mm
inhibition zone (Proteus vulgaris; [4]): 7 mm
inhibition zone (Escherichia coli; [2]): 0 mm
inhibition zone (Escherichia coli; [3]): 0 mm
inhibition zone (Escherichia coli; [4]): 0 mm
inhibition zone (IZ) (Cladosporum herbarum; 0.5% content of the solution): 10-12 mm
inhibition zone (IZ) (Cladosporum herbarum; 1% content of the solution): > 15 mm
inhibition zone (IZ) (Cladosporum herbarum; 2% content of the solution): > 15 mm
inhibition zone (IZ) (Lentinus lepideus; 0.5% content of the solution): > 15 mm
inhibition zone (IZ) (Lentinus lepideus; 1% content of the solution): > 15 mm
inhibition zone (IZ) (Lentinus lepideus; 2% content of the solution): > 15 mm
inhibition zone (IZ) (Poria monticola; 0.5% content of the solution): 7-9 mm
inhibition zone (IZ) (Poria monticola; 1% content of the solution): 15 mm
inhibition zone (IZ) (Poria monticola; 2% content of the solution): 15 mm
inhibition zone (IZ) (Paecilomyces varioti; 0.5% content of the solution): 10-12 mm
inhibition zone (IZ) (Paecilomyces varioti; 1% content of the solution): > 15 mm
inhibition zone (IZ) (Paecilomyces varioti; 2% content of the solution): > 15 mm
biocidal activity (bacteria and fungi): very good biocidal activity
